Results published in patent publication US8388931B2, “99m Tc-labeled triphenylphosphonium derivative contrasting agents and molecular probes for early detection and imaging of breast tumors” (priority 2008, dated 2013).
Read-outs that look alike come from different tables or passages of the source.

Experiments:
[1] = for Radioactivity Uptake, Bone: Bone (non-organ); for Radioactivity Uptake, Fat: Fat (non-organ); for Radioactivity Uptake, Muscle: Muscle (non-organ); for Radioactivity Uptake, Urine: Urine (non-organ)
Protocol: Rats (n=3) were sacrificed at 1, 3, 5, 10, 30 and 60 min after injection and the distribution of radioactivity in different tissues was determined by gamma well counting with an energy window of 140±15 keV. The biodistribution data is expressed in terms of percentage injected dosage per gram (% ID/g) with mean±standard deviation. Urine samples were collected from the bladder at 30 min after injection, and were analyzed by radioHPLC to determine the presence of metabolic derivatives of the radiotracer. […] Specifically, anterior planar whole-body dynamic images were acquired on an XRT gamma camera (General Electric) using a high-resolution medium energy parallel-hole collimator at one frame per minute for 60 min, with 512×512 matrix, and an energy window of 140±15 keV.

[2] = Radio-stability in physiological buffer by radioHPLC; type: physicochemical
Protocol: Mito10-MAG3 was radiolabeled with ^99mTc, using a protocol previously reported with minor modifications. Specifically, an aliquot of Mito10-MAG3 (30 μg) was re-suspended in 450 μl of freshly prepared labeling solution containing 7.5 mg tartaric acid, 9.5 mg ammonium acetate, 10 μg stannous chloride, pH 8.3. After the addition of ^99mTc pertechnetate (3 mCi), the labeling mixture was incubated at 65° C. for one hour. For quality control purposes, the radiolabeled product was routinely analyzed by radioHPLC (4.6×250 mm C18 reversed phase column) at room temperature, with the following method.
Buffer A contained 10 mM phosphate buffer (pH 6.8) and buffer B contained 100% acetonitrile. A baseline of 90% A and 10% B was run for 10 min, followed by a linear gradient with the mobile phase reaching 10% A and 90% B at 40 min. To determine the radio-stability, the radiopharmaceutical was maintained in physiological buffer for up to 48 hours, and the radiochemical purity was examined by radioHPLC.

[3] = Comparative study: myocardial and hepatic uptake of 99mTc-MIBI versus 99mTc-Mito10-MAG3; type: in vivo, rats; details: rats
Protocol: ^99mTc-MIBI of clinical formulation was purchased from Bristol Myers Squibb. […] Dynamic images were acquired in identical fashion following 99mTc-MIBI injection.
In a comparative study, the myocardial uptake of ^99mTc-MIBI peaked at 2.70±0.4% ID/g within minutes after injection, and remained above 2.41±0.3% ID/g for at least 90 min. Comparatively, the myocardial uptake level of ^99mTc-Mito10-MAG 3 is 10, 40, and 120 fold lower than the uptake level of ^99mTc-MIBI at 3, 10 and 30 min after injection. The hepatic uptake of ^99mTc-MIBI was at 0.37±0.14% ID/g at 30 min after injection.

SMILES: CC(=O)[S+]1CC(=O)[N]2CC(=O)[N]3CC(=O)[N](CC(=O)NCCCCCCCCCC[P+](c4ccccc4)(c4ccccc4)c4ccccc4)[99Tc]321=[O].[Br-] (centres unmarked) [^99mTc-Mito10-MAG3]
- Radioactivity Uptake, Bone ([1]; 1 min after injection, rats): 0.12 ± 0.05 % ID/g
- Radioactivity Uptake, Bone ([1]; 3 min after injection, rats): 0.05 ± 0.01 % ID/g
- Radioactivity Uptake, Bone ([1]; 5 min after injection, rats): 0.02 ± 0.24 % ID/g
- Radioactivity Uptake, Bone ([1]; 10 min after injection, rats): 0.04 ± 0.03 % ID/g
- Radioactivity Uptake, Bone ([1]; 30 min after injection, rats): 0.01 ± 0.01 % ID/g
- Radioactivity Uptake, Bone ([1]; 60 min after injection, rats): 0.00 ± 0.00 % ID/g
- Radioactivity Uptake, Brain ([1]; 1 min after injection, rats): 0.04 ± 0.03 % ID/g
- Radioactivity Uptake, Brain ([1]; 3 min after injection, rats): 0.02 ± 0.01 % ID/g
- Radioactivity Uptake, Brain ([1]; 5 min after injection, rats): 0.04 ± 0.03 % ID/g
- Radioactivity Uptake, Brain ([1]; 10 min after injection, rats): 0.01 ± 0.00 % ID/g
- Radioactivity Uptake, Brain ([1]; 30 min after injection, rats): 0.01 ± 0.01 % ID/g
- Radioactivity Uptake, Brain ([1]; 60 min after injection, rats): 0.00 ± 0.00 % ID/g
- Radioactivity Uptake, Colon ([1]; 1 min after injection, rats): 0.09 ± 0.04 % ID/g
- Radioactivity Uptake, Colon ([1]; 3 min after injection, rats): 0.08 ± 0.03 % ID/g
- Radioactivity Uptake, Colon ([1]; 5 min after injection, rats): 0.02 ± 0.01 % ID/g
- Radioactivity Uptake, Colon ([1]; 10 min after injection, rats): 0.03 ± 0.01 % ID/g
- Radioactivity Uptake, Colon ([1]; 30 min after injection, rats): 0.04 ± 0.03 % ID/g
- Radioactivity Uptake, Colon ([1]; 60 min after injection, rats): 0.01 ± 0.00 % ID/g
- Radioactivity Uptake, Fat ([1]; 1 min after injection, rats): 0.04 ± 0.02 % ID/g
- Radioactivity Uptake, Fat ([1]; 3 min after injection, rats): 0.06 ± 0.01 % ID/g
- Radioactivity Uptake, Fat ([1]; 5 min after injection, rats): 0.07 ± 0.05 % ID/g
- Radioactivity Uptake, Fat ([1]; 10 min after injection, rats): 0.07 ± 0.03 % ID/g
- Radioactivity Uptake, Fat ([1]; 30 min after injection, rats): 0.01 ± 0.00 % ID/g
- Radioactivity Uptake, Fat ([1]; 60 min after injection, rats): 0.00 ± 0.00 % ID/g
- Radioactivity Uptake, Heart ([1]; 1 min after injection, rats): 0.20 ± 0.08 % ID/g
- Radioactivity Uptake, Heart ([1]; 3 min after injection, rats): 0.27±0.04 % ID/g
- Radioactivity Uptake, Heart ([1]; 5 min after injection, rats): 0.18 ± 0.07 % ID/g
- Radioactivity Uptake, Heart ([1]; 10 min after injection, rats): 0.06±0.01 % ID/g
- Radioactivity Uptake, Heart ([1]; 30 min after injection, rats): 0.02±0.02 % ID/g
- Radioactivity Uptake, Heart ([1]; 60 min after injection, rats): 0.01 ± 0.00 % ID/g
- Radioactivity Uptake, Kidneys ([1]; 1 min after injection, rats): 2.30 ± 0.55 % ID/g
- Radioactivity Uptake, Kidneys ([1]; 3 min after injection, rats): 3.69 ± 0.92 % ID/g
- Radioactivity Uptake, Kidneys ([1]; 5 min after injection, rats): 3.06 ± 1.41 % ID/g
- Radioactivity Uptake, Kidneys ([1]; 10 min after injection, rats): 1.79 ± 0.39 % ID/g
- Radioactivity Uptake, Kidneys ([1]; 30 min after injection, rats): 1.40 ± 0.96 % ID/g
- Radioactivity Uptake, Kidneys ([1]; 60 min after injection, rats): 0.75 ± 0.59 % ID/g
- Radioactivity Uptake, Liver ([1]; 1 min after injection, rats): 3.23±1.10 % ID/g
- Radioactivity Uptake, Liver ([1]; 3 min after injection, rats): 2.41 ± 1.12 % ID/g
- Radioactivity Uptake, Liver ([1]; 5 min after injection, rats): 1.50 ± 0.84 % ID/g
- Radioactivity Uptake, Liver ([1]; 10 min after injection, rats): 0.89 ± 0.30 % ID/g
- Radioactivity Uptake, Liver ([1]; 30 min after injection, rats): 0.32±0.02 % ID/g
- Radioactivity Uptake, Liver ([1]; 60 min after injection, rats): 0.21 ± 0.07 % ID/g
- Radioactivity Uptake, Lung ([1]; 1 min after injection, rats): 0.82 ± 1.05 % ID/g
- Radioactivity Uptake, Lung ([1]; 3 min after injection, rats): 0.31 ± 0.14 % ID/g
- Radioactivity Uptake, Lung ([1]; 5 min after injection, rats): 0.48 ± 0.43 % ID/g
- Radioactivity Uptake, Lung ([1]; 10 min after injection, rats): 0.23 ± 0.24 % ID/g
- Radioactivity Uptake, Lung ([1]; 30 min after injection, rats): 0.05 ± 0.01 % ID/g
- Radioactivity Uptake, Lung ([1]; 60 min after injection, rats): 0.03 ± 0.01 % ID/g
- Radioactivity Uptake, Muscle ([1]; 1 min after injection, rats): 0.05 ± 0.02 % ID/g
- Radioactivity Uptake, Muscle ([1]; 3 min after injection, rats): 0.03 ± 0.01 % ID/g
- Radioactivity Uptake, Muscle ([1]; 5 min after injection, rats): 0.06 ± 0.01 % ID/g
- Radioactivity Uptake, Muscle ([1]; 10 min after injection, rats): 0.06 ± 0.01 % ID/g
- Radioactivity Uptake, Muscle ([1]; 30 min after injection, rats): 0.02 ± 0.01 % ID/g
- Radioactivity Uptake, Muscle ([1]; 60 min after injection, rats): 0.01 ± 0.00 % ID/g
- Radioactivity Uptake, Pancreas ([1]; 1 min after injection, rats): 0.32 ± 0.22 % ID/g
- Radioactivity Uptake, Pancreas ([1]; 3 min after injection, rats): 0.27 ± 0.12 % ID/g
- Radioactivity Uptake, Pancreas ([1]; 5 min after injection, rats): 0.20 ± 0.17 % ID/g
- Radioactivity Uptake, Pancreas ([1]; 10 min after injection, rats): 0.12 ± 0.04 % ID/g
- Radioactivity Uptake, Pancreas ([1]; 30 min after injection, rats): 0.01 ± 0.00 % ID/g
- Radioactivity Uptake, Pancreas ([1]; 60 min after injection, rats): 0.02 ± 0.01 % ID/g
- Radioactivity Uptake, Skin ([1]; 1 min after injection, rats): 0.07 ± 0.03 % ID/g
- Radioactivity Uptake, Skin ([1]; 3 min after injection, rats): 0.10 ± 0.04 % ID/g
- Radioactivity Uptake, Skin ([1]; 5 min after injection, rats): 0.12 ± 0.08 % ID/g
- Radioactivity Uptake, Skin ([1]; 10 min after injection, rats): 0.05 ± 0.04 % ID/g
- Radioactivity Uptake, Skin ([1]; 30 min after injection, rats): 0.04 ± 0.03 % ID/g
- Radioactivity Uptake, Skin ([1]; 60 min after injection, rats): 0.02 ± 0.01 % ID/g
- Radioactivity Uptake, Small Intestine ([1]; 1 min after injection, rats): 0.18 ± 0.04 % ID/g
- Radioactivity Uptake, Small Intestine ([1]; 3 min after injection, rats): 0.67 ± 0.30 % ID/g
- Radioactivity Uptake, Small Intestine ([1]; 5 min after injection, rats): 0.48 ± 0.14 % ID/g
- Radioactivity Uptake, Small Intestine ([1]; 10 min after injection, rats): 0.50 ± 0.19 % ID/g
- Radioactivity Uptake, Small Intestine ([1]; 30 min after injection, rats): 0.52 ± 0.20 % ID/g
- Radioactivity Uptake, Small Intestine ([1]; 60 min after injection, rats): 0.36 ± 0.41 % ID/g
- Radioactivity Uptake, Spleen ([1]; 1 min after injection, rats): 0.27 ± 0.12 % ID/g
- Radioactivity Uptake, Spleen ([1]; 3 min after injection, rats): 0.25 ± 0.17 % ID/g
- Radioactivity Uptake, Spleen ([1]; 5 min after injection, rats): 0.20 ± 0.08 % ID/g
- Radioactivity Uptake, Spleen ([1]; 10 min after injection, rats): 0.09 ± 0.04 % ID/g
- Radioactivity Uptake, Spleen ([1]; 30 min after injection, rats): 0.02 ± 0.02 % ID/g
- Radioactivity Uptake, Spleen ([1]; 60 min after injection, rats): 0.02 ± 0.01 % ID/g
- Radioactivity Uptake, Stomach ([1]; 1 min after injection, rats): 0.26 ± 0.04 % ID/g
- Radioactivity Uptake, Stomach ([1]; 3 min after injection, rats): 0.32 ± 0.12 % ID/g
- Radioactivity Uptake, Stomach ([1]; 5 min after injection, rats): 0.25 ± 0.26 % ID/g
- Radioactivity Uptake, Stomach ([1]; 10 min after injection, rats): 0.30 ± 0.24 % ID/g
- Radioactivity Uptake, Stomach ([1]; 30 min after injection, rats): 0.57 ± 0.41 % ID/g
- Radioactivity Uptake, Stomach ([1]; 60 min after injection, rats): 0.04 ± 0.05 % ID/g
- Radioactivity Uptake, Thymus ([1]; 1 min after injection, rats): 006 ± 0.02 % ID/g
- Radioactivity Uptake, Thymus ([1]; 3 min after injection, rats): 0.12 ± 0.04 % ID/g
- Radioactivity Uptake, Thymus ([1]; 5 min after injection, rats): 0.07 ± 0.01 % ID/g
- Radioactivity Uptake, Thymus ([1]; 10 min after injection, rats): 0.04 ± 0.03 % ID/g
- Radioactivity Uptake, Thymus ([1]; 30 min after injection, rats): 0.01 ± 0.00 % ID/g
- Radioactivity Uptake, Thymus ([1]; 60 min after injection, rats): 0.01 ± 0.00 % ID/g
- Radioactivity Uptake, Thyroid ([1]; 1 min after injection, rats): 0.30 ± 0.13 % ID/g
- Radioactivity Uptake, Thyroid ([1]; 3 min after injection, rats): 0.33 ± 0.07 % ID/g
- Radioactivity Uptake, Thyroid ([1]; 5 min after injection, rats): 0.27 ± 0.11 % ID/g
- Radioactivity Uptake, Thyroid ([1]; 10 min after injection, rats): 0.11 ± 0.04 % ID/g
- Radioactivity Uptake, Thyroid ([1]; 30 min after injection, rats): 0.02 ± 0.02 % ID/g
- Radioactivity Uptake, Thyroid ([1]; 60 min after injection, rats): 0.01 ± 0.00 % ID/g
- Radioactivity Uptake, Urine ([1]; 1 min after injection, rats): 0.05 ± 0.05 % ID/g
- Radioactivity Uptake, Urine ([1]; 3 min after injection, rats): 0.76 ± 0.56 % ID/g
- Radioactivity Uptake, Urine ([1]; 5 min after injection, rats): 0.68 ± 0.03 % ID/g
- Radioactivity Uptake, Urine ([1]; 10 min after injection, rats): 2.35 ± 2.63 % ID/g
- Radioactivity Uptake, Urine ([1]; 30 min after injection, rats): 8.83 ± 8.50 % ID/g
- Radioactivity Uptake, Urine ([1]; 60 min after injection, rats): 10.85 ± 12.48 % ID/g
- time for hepatic signal to decline to sufficiently low level ([1]; liver, after injection): ≤ 30 min
- blood half-life ([1]; rats, intravenous injection, estimated): less than 2 min
- time radioactivity bound to Mito10-MAG3 remained persistent after labeling ([2]; physiological solution, radioHPLC): at least 48 hours
- change in radiochemical purity after radiolabeling ([2]; radioHPLC at 0, 24 and 48 hr after radiolabeling): no significant change in radiochemical purity
- reduction of uptake in the myocardium compared to 99mTc-MIBI [3]: one to two orders of magnitude
